Laboratory results published in PubChem BioAssay AID248 (DTP/NCI, 2004).
Several values for one entry are separate records, joined by “and”; a condition that tells them apart may be missing. Identical values can stand only once. Toxic doses and inconclusive results are not listed. Rule as the data show it: active = T/C of 150% or more; inactive = T/C below 125%.

System: L1210 leukemia ip in BDF1 mice, survival T/C
Assay: NCI In Vivo Anticancer Drug Screen. Data for tumor model L1210 Leukemia (intraperitoneal) in B6D2F1 (BDF1) mice
Details: endpoint: mean survival time, higher = longer survival
Procedure, shortened: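 Antitumor effect is assessed in tumor-bearing animals. Survival in the compound arm is compared with a vehicle-dosed control arm and expressed as their quotient.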

[1] = dose: 100.0 mg/kg/injection, schedule: Q01DX009 (ip), vehicle: saline
[2] = dose: 100.0 mg/kg/injection, schedule: Q04DX003 (ip), vehicle: saline
[3] = dose: 200.0 mg/kg/injection, schedule: Q01DX009 (ip), vehicle: saline
[4] = dose: 200.0 mg/kg/injection, schedule: Q04DX003 (ip), vehicle: saline
[5] = dose: 400.0 mg/kg/injection, schedule: Q04DX003 (ip), vehicle: saline
[6] = dose: 200.0 mg/kg/injection, schedule: Q04DX002 (ip), vehicle: Klucel (hydroxypropylcellulose) (HPC)
[7] = dose: 100.0 mg/kg/injection, schedule: Q01DX001 (ip), vehicle: Klucel (hydroxypropylcellulose) (HPC)
[8] = dose: 200.0 mg/kg/injection, schedule: Q01DX001 (ip), vehicle: Klucel (hydroxypropylcellulose) (HPC)
[9] = dose: 400.0 mg/kg/injection, schedule: Q01DX001 (ip), vehicle: Klucel (hydroxypropylcellulose) (HPC)
[10] = dose: 100.0 mg/kg/injection, schedule: Q04DX002 (ip), vehicle: saline with Tween-80
[11] = dose: 50.0 mg/kg/injection, schedule: Q01DX009 (ip), vehicle: Klucel (hydroxypropylcellulose) (HPC)
[12] = dose: 100.0 mg/kg/injection, schedule: Q01DX009 (ip), vehicle: Klucel (hydroxypropylcellulose) (HPC)
[13] = dose: 200.0 mg/kg/injection, schedule: Q01DX009 (ip), vehicle: Klucel (hydroxypropylcellulose) (HPC)
[14] = dose: 400.0 mg/kg/injection, schedule: Q01DX009 (ip), vehicle: Klucel (hydroxypropylcellulose) (HPC)
[15] = dose: 100.0 mg/kg/injection, schedule: Q01DX001 (ip), vehicle: other
[16] = dose: 200.0 mg/kg/injection, schedule: Q01DX001 (ip), vehicle: other
[17] = dose: 100.0 mg/kg/injection, schedule: Q04DX002 (ip), vehicle: Klucel (hydroxypropylcellulose) (HPC)
[18] = dose: 400.0 mg/kg/injection, schedule: Q04DX002 (ip), vehicle: Klucel (hydroxypropylcellulose) (HPC)

Measured: T/C

OCC(O)C1CCCCN1 (stereo not drawn)
inactive: [1] 91 % of control | [2] 97 % of control | [3] 100 % of control | [4] 97 % of control | [5] 97 % of control

C=CCCCCCCCCC(=O)N/N=C/c1ccc(NC(C)=O)cc1
inactive: dose: 12.5 mg/kg/injection, schedule: Q01DX001 (ip), vehicle: other 90 % of control | dose: 12.5 mg/kg/injection, schedule: Q01DX009 (ip), vehicle: other 95 % of control and 96 % of control | dose: 12.5 mg/kg/injection, schedule: Q04DX003 (ip), vehicle: other 96 % of control | dose: 25.0 mg/kg/injection, schedule: Q01DX001 (ip), vehicle: other 91 % of control | dose: 25.0 mg/kg/injection, schedule: Q01DX009 (ip), vehicle: other 114 % of control and 92 % of control | dose: 25.0 mg/kg/injection, schedule: Q04DX003 (ip), vehicle: other 102 % of control | dose: 50.0 mg/kg/injection, schedule: Q01DX009 (ip), vehicle: carboxymethylcellulose (CMC) 98 % of control and 100 % of control | dose: 50.0 mg/kg/injection, schedule: Q04DX003 (ip), vehicle: other 93 % of control | dose: 100.0 mg/kg/injection, schedule: Q01DX009 (ip), vehicle: carboxymethylcellulose (CMC) 96 % of control | dose: 100.0 mg/kg/injection, schedule: Q01DX009 (ip), vehicle: other 98 % of control | dose: 100.0 mg/kg/injection, schedule: Q04DX002 (ip), vehicle: carboxymethylcellulose (CMC) 90 % of control | dose: 100.0 mg/kg/injection, schedule: Q04DX003 (ip), vehicle: other 94 % of control | dose: 200.0 mg/kg/injection, schedule: Q01DX009 (ip), vehicle: carboxymethylcellulose (CMC) 100 % of control and 92 % of control | dose: 200.0 mg/kg/injection, schedule: Q01DX009 (ip), vehicle: other 89 % of control | [6] 114 % of control | dose: 200.0 mg/kg/injection, schedule: Q04DX002 (ip), vehicle: carboxymethylcellulose (CMC) 90 % of control | dose: 200.0 mg/kg/injection, schedule: Q04DX003 (ip), vehicle: other 92 % of control | dose: 400.0 mg/kg/injection, schedule: Q04DX002 (ip), vehicle: carboxymethylcellulose (CMC) 92 % of control | dose: 400.0 mg/kg/injection, schedule: Q04DX003 (ip), vehicle: other 86 % of control

Cc1ccccc1N=Cc1cc(Cl)ccc1O
inactive: [7] 97 % of control | dose: 100.0 mg/kg/injection, schedule: Q04DX003 (ip), vehicle: Klucel (hydroxypropylcellulose) (HPC) 88 % of control | [8] 95 % of control | dose: 200.0 mg/kg/injection, schedule: Q04DX003 (ip), vehicle: Klucel (hydroxypropylcellulose) (HPC) 97 % of control | [9] 93 % of control | dose: 400.0 mg/kg/injection, schedule: Q04DX003 (ip), vehicle: Klucel (hydroxypropylcellulose) (HPC) 101 % of control

O=C(/C=C/c1ccccc1)CCN1CCC2CCC(C2)C1 (stereo not drawn)
inactive: dose: 50.0 mg/kg/injection, schedule: Q01DX001 (ip), vehicle: carboxymethylcellulose (CMC) 103 % of control | dose: 100.0 mg/kg/injection, schedule: Q01DX001 (ip), vehicle: carboxymethylcellulose (CMC) 97 % of control

Cc1cc(OC(=O)Nc2cccc(C(F)(F)F)c2)c(C(C)C)cc1Cl
inactive: dose: 100.0 mg/kg/injection, schedule: Q01DX009 (ip), vehicle: gum acacia 87 % of control | dose: 200.0 mg/kg/injection, schedule: Q01DX009 (ip), vehicle: gum acacia 91 % of control | dose: 400.0 mg/kg/injection, schedule: Q01DX009 (ip), vehicle: gum acacia 86 % of control

CCOc1ccccc1N1C(=O)CSC1=S
inactive: dose: 200.0 mg/kg/injection, schedule: Q04DX002 (ip), vehicle: other 117 % of control | dose: 400.0 mg/kg/injection, schedule: Q04DX002 (ip), vehicle: other 95 % of control

O=C1Nc2ccccc2Oc2ccccc21
inactive: [1] 105 % of control | [2] 92 % of control | [3] 93 % of control | [4] 91 % of control | dose: 400.0 mg/kg/injection, schedule: Q01DX009 (ip), vehicle: saline 98 % of control | [5] 92 % of control

Oc1ccc(CCCc2ccc3c(c2)OCO3)cc1
inactive: [10] 104 % of control | dose: 200.0 mg/kg/injection, schedule: Q04DX002 (ip), vehicle: saline with Tween-80 104 % of control

COc1ccc(C(=C2CCCCC2)c2ccc(OC)cc2)cc1
inactive: dose: 100.0 mg/kg/injection, schedule: Q01DX001 (ip), vehicle: saline with Tween-80 95 % of control | dose: 200.0 mg/kg/injection, schedule: Q01DX001 (ip), vehicle: saline with Tween-80 94 % of control | dose: 400.0 mg/kg/injection, schedule: Q01DX001 (ip), vehicle: saline with Tween-80 88 % of control

COc1cc(/C=C/C(N)=O)cc(OC)c1OC
inactive: dose: 25.0 mg/kg/injection, schedule: Q01DX009 (ip), vehicle: Klucel (hydroxypropylcellulose) (HPC) 104 % of control | [11] 114 % of control | [12] 101 % of control | [13] 104 % of control | [14] 102 % of control

O=C1c2cccc3cccc(c23)C(=O)N1O
inactive: [15] 104 % of control | [16] 98 % of control | dose: 400.0 mg/kg/injection, schedule: Q01DX001 (ip), vehicle: other 106 % of control

CCNc1ccccc1-c1nc2ccccc2[nH]1
inactive: [11] 93 % of control | [12] 100 % of control | [13] 102 % of control

S=P(=Nc1ccccc1)c1ccccc1 (stereo not drawn)
inactive: [7] 91 % of control | [8] 89 % of control | [9] 88 % of control

COc1ccc(/C(C)=N\NC(N)=O)cc1
inactive: dose: 50.0 mg/kg/injection, schedule: Q04DX002 (ip), vehicle: Klucel (hydroxypropylcellulose) (HPC) 111 % of control | [17] 105 % of control | [6] 94 % of control | [18] 99 % of control

Nc1nc2c(nc(Br)n2C2CC(O)C(CO)O2)c(=O)[nH]1 (stereo not drawn)
inactive: dose: 50.0 mg/kg/injection, schedule: Q01DX001 (ip), vehicle: saline 102 % of control | dose: 100.0 mg/kg/injection, schedule: Q01DX001 (ip), vehicle: saline 102 % of control | dose: 200.0 mg/kg/injection, schedule: Q01DX001 (ip), vehicle: saline 98 % of control | dose: 400.0 mg/kg/injection, schedule: Q01DX001 (ip), vehicle: saline 98 % of control

CNC(=O)N(C)C1C(OC)OC2COC(c3ccccc3)OC2C1O (stereo not drawn)
inactive: dose: 25.0 mg/kg/injection, schedule: Q01DX009 (ip), vehicle: saline 100 % of control | dose: 50.0 mg/kg/injection, schedule: Q01DX009 (ip), vehicle: saline 105 % of control | [1] 100 % of control | [3] 100 % of control

Cc1ccc2[nH]c(C)c(C3=CC(=O)c4ccccc4C3=O)c2c1
inactive: [15] 97 % of control | [16] 92 % of control

O=C(Nc1cccc2ccccc12)OCc1ccccc1
inactive: [17] 108 % of control | [6] 89 % of control | [18] 93 % of control

O=C(O)c1cccc(CCl)c1
inactive: [10] 95 % of control

CCOC(=O)Nc1cccc(C)c1C
inactive: [12] 100 % of control | [13] 107 % of control | [14] 104 % of control
